# Assay: Heat transformations of Dolasetron mesylate forms (solid-state form after heating)
# Format: physicochemical
smiles,measurement,setting,value
"CS(=O)(=O)O.O=C(OC1C[C@@H]2CC3C[C@H](C1)N2CC3=O)c1c[nH]c2ccccc12 (stereo partly drawn) [Form IV, Dolasetron mesylate]",HEAT TRANSFORMATION RESULT,"heated at 160 °C, 60 min., listed as IV",VII + IV
"O=C(OC1CC2CC3CC(C1)N2CC3=O)c1c[nH]c2ccccc12 (stereo not drawn) [Form II, (2α,6α,8α,9αβ)-octahydro-3-oxo-2,6-methano-2H-quinolizin-8-yl-1H-indole-3-carboxylate monomethanesulfonate monohydrate, reference compound]",HEAT TRANSFORMATION RESULT (second TEMP./TIME),"after 160 °C, 30 min, then 160, 30 min",VII > III
"CS(=O)(=O)O.O=C(OC1C[C@@H]2CC3C[C@H](C1)N2CC3=O)c1c[nH]c2ccccc12 (stereo partly drawn) [Form V, Dolasetron mesylate]",HEAT TRANSFORMATION RESULT,"heated at 160 °C, 60 min., listed as V",XII
"CS(=O)(=O)O.O=C(OC1C[C@@H]2CC3C[C@H](C1)N2CC3=O)c1c[nH]c2ccccc12 (stereo partly drawn) [Form VIII, Dolasetron mesylate]",HEAT TRANSFORMATION RESULT,"heated at 160 °C, 30 min",XII
same,HEAT TRANSFORMATION RESULT,"heated at 160 °C, 60 min., listed as VIII",XII
"CS(=O)(=O)O.O=C(OC1C[C@@H]2CC3C[C@H](C1)N2CC3=O)c1c[nH]c2ccccc12 (stereo partly drawn) [Form I, Dolasetron Mesylate]",HEAT TRANSFORMATION RESULT,"heated at 190 °C, 30 min.",Amorphous > III
